# Measurements from patent US20240417370A1, “LIPIDS FOR USE IN LIPID NANOPARTICLE FORMULATIONS” (Acuitas Therapeutics, Inc., priority 2023, published 2024).
# Test system: human IgG in mouse serum
# Test: Immunoglobulin G (IgG) mRNA in vivo evaluation using lipid nanoparticle compositions
# Design: species or system mice
# Details: LNP-formulated lipid, tail vein injection, μg IgG/mL serum 24 hours after administration; for Serum IgG @ 0.3 mg/kg: 0.3 mg mRNA/kg; for Serum IgG @ 1.0 mg/kg: 1.0 mg mRNA/kg
# Method: A lipid of structure (I), DSPC, cholesterol and PEG-lipid are solubilized in ethanol at a molar ratio of 50:10:38.5:1.5 or 47.5:10:40.7:1.8. Lipid nanoparticles (LNP) are prepared at a total lipid to mRNA weight ratio of approximately 10:1 to 40:1. Briefly, the mRNA is diluted to 0.2 mg/mL in 10 to 50 mM citrate buffer, pH 4 to 6 or 10 to 25 mM acetate buffer, pH 4 to 6. Syringe pumps are used to mix the ethanolic lipid solution with the mRNA aqueous solution at a ratio of about 1:5 to 1:3 (vol/vol) with total flow rates above 15 mL/min. The ethanol is then removed, and the external buffer replaced with PBS by dialysis. Finally, the lipid nanoparticles are filtered through a 0.2 µm pore sterile filter.
# Studies are performed in 6-8-week-old CD-1/ICR mice (Envigo, Charles River, or Inotiv) according to guidelines established by an institutional animal care committee (ACC) and the Canadian Council on Animal Care (CCAC). Varying doses of mRNA-lipid nanoparticle are systemically administered by tail vein injection and animals euthanized at a specific time point (e.g., 24 hours) post-administration. The whole blood is collected, and the serum subsequentially separated by centrifuging the tubes of the whole blood at 2000×g for 10 minutes at 4° C. and stored at −80° C. until use for analysis.
# For immunoglobulin G (IgG) ELISA (Life Diagnostics Human IgG ELISA kit), the serum samples are diluted at 100 to 20,000 folds with 1× diluent solution. 100 μL of diluted serum is dispensed into anti-human IgG coated 96-well plate in duplicate alongside human IgG standards and incubated in a plate shaker at 150 rpm at 25° C. for 45 minutes. The wells are washed 5 times with 1× wash solution using a plate washer (400 μL/well). 100 μL of HRP conjugate is added into each well and incubated in a plate shaker at the same condition above. The wells are washed 5 times again with 1× wash solution using a plate washer (400 μL/well). 100 μL of TMB reagent is added into each well and incubated in a plate shaker at the same condition above. The reaction is stopped by adding 100 μL of Stop solution to each well. The absorbance is read at 450 nm (A450) with a microplate reader. The amount of human IgG in mouse serum is determined by plotting A450 values for the assay standard against human IgG concentration.
# Representative compounds of the disclosure shown in Table 2 were formulated using the following molar ratio: 50% cationic lipid/10% distearoylphosphatidylcholine (DSPC)/38.5% Cholesterol/1.5% PEG lipid 2-[2-(ω-methoxy(polyethyleneglycol2000)ethoxy]-N,N-ditetradecylacetamide) or 47.5% cationic lipid/10% DSPC/40.7% Cholesterol/1.8% PEG lipid. Relative activity was determined by measuring luciferase expression in the liver 4 hours following administration via tail vein injection as described in Example 1 or by measuring the amount of human IgG in mouse serum as described in example 2. The activity was compared at a dose of 1.0 or 0.5 or 0.3 mg mRNA/kg and expressed as ng luciferase/g liver measured 4 hours after administration, as described in Example 1 or as μg IgG/mL serum measured 24 hours after administration, as described in Example 2. Compound numbers in Table 2 refer to the compound numbers of Table 1.
SMILES,Serum IgG @ 0.3 mg/kg,Serum IgG @ 1.0 mg/kg
"CCCCCCCCCCN(CCCCCCCCCC)C(=O)CCCCCCCN(CCCCCCCC(=O)N(CCCCCCCCCC)CCCCCCCCCC)C[C@H]1C[C@@H]1CO (racemic) [(rac)-(1RS, 2RS) I-45, 8,8′-((((1s,2s)-2-(hydroxymethyl)cyclopropyl)methyl)azanediyl)bis(N,N-didecyloctanamide)]",10.95 ± 4.31 µg/mL,–
"CCCCCCCCCCN(CCCCCCCCCC)C(=O)CCCCCCCN(CCCCCCCC(=O)N(CCCCCCCCCC)CCCCCCCCCC)C1CCC[C@H]1O (mixture of isomers) [(rac)-(1RS, 2RS) I-48, 8,8′-(((1s,2s)-2-hydroxycyclopentyl)azanediyl)bis(N,N-didecyloctanamide)]",32.85 ± 6.90 µg/mL,216.8 ± 46.48 µg/mL
"CCCCCCCCCCN(CCCCCCCCCC)C(=O)CCCCCCCN(CCCCCCCC(=O)N(CCCCCCCCCC)CCCCCCCCCC)C[C@H]1C[C@H]1CO (racemic) [(rac)-(1RS, 2SR) I-45, 8,8′-((((1s,2r)-2-(hydroxymethyl)cyclopropyl)methyl)azanediyl)bis(N,N-didecyloctanamide)]",15.84 ± 3.20 µg/mL,–
"CCCCCCCCCCN(CCCCCCCCCC)C(=O)CCCCCCCN(CCCCCCCC(=O)N(CCCCCCCCCC)CCCCCCCCCC)C1CCCC1O (racemic) [(rac)-(1RS, 2SR) I-48, 8,8′-(((1s,2r)-2-hydroxycyclopentyl)azanediyl)bis(N,N-didecyloctanamide)]",43.32 ± 11.04 µg/mL,161.75 ± 26.50 µg/mL
"CCCCCCCCCCN(CCCCCCCCCC)C(=O)CCCCCCCN(CCCCCCCC(=O)N(CCCCCCCCCC)CCCCCCCCCC)[C@@H]1CC[C@@H](O)C1 (racemic) [(rac)-(1RS, 3RS) I-14, 8,8′-(((1r,3r)-3-hydroxycyclopentyl)azanediyl)bis(N,N-didecyloctanamide); 8,8′-(((1s,3s)-3-hydroxycyclopentyl)azanediyl)bis(N,N-didecyloctanamide)]",11.48 ± 1.87 µg/mL,45.96 ± 11.03 µg/mL
"CCCCCCCCCCN(CCCCCCCCCC)C(=O)CCCCCCCN(CCCCCCCC(=O)N(CCCCCCCCCC)CCCCCCCCCC)[C@@H]1CC[C@H](O)C1 (racemic) [(rac)-(1RS, 3SR) I-14, 8,8′-(((1r,3s)-3-hydroxycyclopentyl)azanediyl)bis(N,N-didecyloctanamide); 8,8′-(((1s,3r)-3-hydroxycyclopentyl)azanediyl)bis(N,N-didecyloctanamide)]",15.74 ± 5.71 µg/mL,66.16 ± 16.66 µg/mL
"CCCCCCCCCCN(CCCCCCCCCC)C(=O)CCCCCCCN(CCCCCCCC(=O)N(CCCCCCCCCC)CCCCCCCCCC)[C@@H]1CCC[C@H]1O [(1R, 2R) I-48, 8,8′-(((1r,2r)-2-hydroxycyclopentyl)azanediyl)bis(N,N-didecyloctanamide)]",25.27 ± 7.50 µg/mL,92.5 ± 20.18 µg/mL
"CCCCCCCCCCN(CCCCCCCCCC)C(=O)CCCCCCCN(CCCCCCCC(=O)N(CCCCCCCCCC)CCCCCCCCCC)[C@@H]1CCC[C@@H]1O [(1R, 2S) I-48, 8,8′-(((1r,2s)-2-hydroxycyclopentyl)azanediyl)bis(N,N-didecyloctanamide)]",28.32 ± 8.81 µg/mL,–
"CCCCCCCCCCN(CCCCCCCCCC)C(=O)CCCCCCCN(CCCCCCCC(=O)N(CCCCCCCCCC)CCCCCCCCCC)[C@H]1C[C@H](O)C1 [(1R, 3R) I-5, 8,8′-(((1R,3R)-3-hydroxycyclobutyl)azanediyl)bis(N,N-didecyloctanamide)]",44.52 ± 9.89 µg/mL,215.61 ± 28.80 µg/mL
"CCCCCCCCCCN(CCCCCCCCCC)C(=O)CCCCCCCN(CCCCCCCC(=O)N(CCCCCCCCCC)CCCCCCCCCC)[C@@H]1CCC[C@@H](O)C1 [(1R, 3R) I-17, 8,8′-(((1R,3R)-3-hydroxycyclohexyl)azanediyl)bis(N,N-didecyloctanamide)]",27.97 ± 3.37 µg/mL,178.14 ± 33.27 µg/mL
"CCCCCCCCCCN(CCCCCCCCN(CCCCCCCCN(CCCCCCCCCC)C(=O)CCCCCCCCC)C[C@H]1C[C@H](O)C1)C(=O)CCCCCCCCC [(1R, 3R) I-22, N,N′-(((((1R,3R)-3-hydroxycyclobutyl)methyl)azanediyl)bis(octane-8,1-diyl))bis(N-decyldecanamide)]",19.88 ± 2.53 µg/mL,–
"CCCCCCCCCCN(CCCCCCCCCC)C(=O)CCCCCCCN(CCCCCCCC(=O)N(CCCCCCCCCC)CCCCCCCCCC)[C@H]1C[C@H](CO)C1 [(1R, 3R) I-24, 8,8′-(((1R,3R)-3-(hydroxymethyl)cyclobutyl)azanediyl)bis(N,N-didecyloctanamide)]",6.93 ± 2.48 µg/mL,19.77 ± 5.43 µg/mL
"CCCCCCCCCCN(CCCCCCCCCC)C(=O)CCCCCCCN(CCCCCCCC(=O)N(CCCCCCCCCC)CCCCCCCCCC)[C@H]1CC[C@H](O)CC1 [(1R, 4R) I-9, 8,8′-(((1R,4R)-4-hydroxycyclohexyl)azanediyl)bis(N,N-didecyloctanamide)]",45.52 ± 6.25 µg/mL,204.57 ± 48.15 µg/mL
"CCCCCCCCCCN(CCCCCCCCCC)C(=O)CCCCCCCN(CCCCCCCC(=O)N(CCCCCCCCCC)CCCCCCCCCC)[C@H]1CC[C@H](CO)CC1 [(1R, 4R) I-23, 8,8′-(((1R,4R)-4-(hydroxymethyl)cyclohexyl)azanediyl)bis(N,N-didecyloctanamide)]",5.15 ± 1.83 µg/mL,37.79 ± 6.41 µg/mL
"CCCCCCCCCCN(CCCCCCCCCC)C(=O)CCCCCCCN(CCCCCCCC(=O)N(CCCCCCCCCC)CCCCCCCCCC)[C@H]1CC[C@](C)(O)CC1 [(1R, 4R) I-25, 8,8′-(((1R,4R)-4-hydroxy-4-methylcyclohexyl)azanediyl)bis(N,N-didecyloctanamide)]",14.03 ± 2.71 µg/mL,105.77 ± 19.44 µg/mL
"CCCCCCCCCCN(CCCCCCCCN(CCCCCCCC(=O)N(CCCCCCCCCC)CCCCCCCCCC)[C@H]1CC[C@H](O)CC1)C(=O)CCCCCCCCC [(1R, 4R) I-47, N-decyl-N-(8-((8-(didecylamino)-8-oxooctyl)((1r,4r)-4-hydroxycyclohexyl)amino)octyl)decanamide]",16.24 ± 2.93 µg/mL,–
"CCCCCCCCCCN(CCCCCCCCCC)C(=O)C(F)CCCCCCN(CCCCCCC(F)C(=O)N(CCCCCCCCCC)CCCCCCCCCC)[C@H]1CC[C@H](O)CC1 (stereo partly drawn) [(1R, 4R) I-49, 8,8′-(((1r,4r)-4-hydroxycyclohexyl)azanediyl)bis(N,N-didecyl-2-fluorooctanamide)]",28.94 ± 13.21 µg/mL,161.09 ± 11.20 µg/mL
"CCCCCCCCCCN(CCCCCCCCCC)C(=O)CCCCCCCN(CCCCCCCC(=O)N(CCCCCCCCCC)CCCCCCCCCC)[C@H]1CCC[C@H]1O [(1S, 2R) I-15, 8,8′-(((1S,2R)-2-hydroxycyclopentyl)azanediyl)bis(N,N-didecyloctanamide)]",33.97 ± 18.40 µg/mL,225.79 ± 54.78 µg/mL
"CCCCCCCCCCN(CCCCCCCCCC)C(=O)CCCCCCCN(CCCCCCCC(=O)N(CCCCCCCCCC)CCCCCCCCCC)[C@H]1CCCC[C@H]1O [(1S, 2R) I-16, 8,8′-(((1S,2R)-2-hydroxycyclohexyl)azanediyl)bis(N,N-didecyloctanamide)]",19.42 ± 7.21 µg/mL,88.40 ± 26.36 µg/mL
"CCCCCCCCCCN(CCCCCCCCCC)C(=O)C(F)CCCCCCN(CCCCCCC(F)C(=O)N(CCCCCCCCCC)CCCCCCCCCC)CC[C@H]1C[C@@H](O)C1 (stereo partly drawn) [(1S, 3R) I-19, 8,8′-((2-((1S,3R)-3-hydroxycyclobutyl)ethyl)azanediyl)bis(N,N-didecyl-2-fluorooctanamide)]",30.68 ± 8.05 µg/mL,267.70 ± 45.90 µg/mL
